Format in all cases: cell-based, E. coli
Assay [1] has as its system W3110-ΔnadCΔkefA with pPro-nadB_pCJ1-nadA and pCL1920. Description: Sensitivity to quinolinic acid, kefA-deficient strain. The protocol:
(§1) First, to attenuate growth and development in the production strains, it was confirmed whether the addition of 13 g/L of quinolinic acid, in which KOH was titrated to a 7.0 pH, had influence or not. That is, a single colony of the strain producing quinolinic acid was inoculated in 25 mL of a LB+1% glucose broth (10 g/L of yeast extract, 5 g/L of NaCl, 10 g/L of tryptone, […] of kanamycin, and 10 g/L of glucose) by 1 platinum loop, and then, incubated with 250 rpm at 33° C. for 16 to 24 hours. Then, the OD600, the glucose consumption, and the residual quinolinic acid of the strain were measured.
(§2) To figure out whether the KefA membrane protein influenced the introduction of quinolinic acid, under the same method as Example 2-4(1), the kefA gene-deficient strain and the kefA gene-enhanced strain were subjected to evaluation of sensitivity to quinolinic acid.

In assay [2] the test system is W3110-ΔnadC with pPro-nadB_pCJ1-nadA and pCL1920. As to the kind of experiment: Sensitivity to quinolinic acid, control strain. The note with it: 13 g/L quinolinic acid in medium. The procedure:
as §1, §2

Assay [3] deals with W3110-ΔnadC with pPro-nadB_pCJ1-nadA and pCL_PrhtB-kefA. Description: Sensitivity to quinolinic acid, kefA-enhanced strain. The protocol:
as §1
The kefA gene obtained through PCR procedures was recovered through agarose gel elution, and then, was treated with restriction enzymes EcoRV and HindIII. Afterwards, the kefA gene was subjected to ligation into a pCL1920_pRhtB vector treated with restriction enzymes EcoRV and HindIII, leading to the expression of the kefA gene linked to a pRhtB promoter. The vector prepared therefrom was named a pCL_pRhtB-kefA vector.
as §2

Assay [4] has as its system W3110-ΔnadC with pPro-nadB_pCJ1-nadA. As to the kind of experiment: Sensitivity to quinolinic acid of strain producing quinolinic acid (growth in LB+1% glucose broth). The procedure: as §1
The test system of assay [5] is MG1655-ΔnadC with pPro-nadB_pCJ1-nadA. Described as above. The note with it: 33° C., 16 to 24 hours. The procedure:
as §1

Where [6] appears, read: 13 g/L quinolinic acid in medium.

Each structure is given as a SMILES string.

`O=C(O)c1cccnc1C(=O)O` [quinolinic acid, 2,3-pyridine-dicarboxylic acid]: the Glucose consumption in assay [1] (setting [6]) stood at 8.0 g/L; in assay [2], 6.2 g/L; in assay [3] (setting [6]), 3.2 g/L; in assay [4] (13 g/L of quinolinic acid in medium, 33° C., 16 to 24 hours) it was 6.0 g/L; in assay [5] (13 g/L of quinolinic acid in medium), 6.0 g/L. Moreover, the OD600 is given as 8.2 in assay [1] (setting [6]); 5.0 in assay [2]; 2.1 in assay [3] (setting [6]); 4.9 in assay [4] (13 g/L of quinolinic acid in medium (pH 7.0 with KOH), 33° C., 16 to 24 hours); 4.5 in assay [5] (13 g/L of quinolinic acid in medium (pH 7.0 with KOH)). Further, the “growth and development and glucose consumption speed compared to control strain” value in assay [1] (quinolinic acid additionally added to the medium, kefA-deficient strain versus control strain) was “up to 110%”; in assay [3] (quinolinic acid additionally added to the medium, kefA-enhanced strain versus control strain), 50%. For the same molecule, the “growth and development and glucose-consumption speed, decreased to” value in assay [4] (quinolinic acid additionally added to the medium (13 g/L) versus 0 g/L, strains of Table 5) amounted to 40%.

The values are drawn from patent publication US10344287B2, “Recombinant microorganism producing quinolinic acid and method for producing quinolinic acid using same” (priority 2014, dated 2019).
